Values after ≈ are worked out from the molar mass of the structure shown.
Tests used:
Staph. albus SS 03 = format: cell-based; conditions: Brain Heart Infusion, estolate and RV11-RV15 previously hydrolized, unit assumed
Staph. albus SS 04 = format: cell-based; conditions: Brain Heart Infusion, estolate and RV11-RV15 previously hydrolized, unit assumed
Staph. aureus SS 07 [1] = format: cell-based; conditions: Brain Heart Infusion, estolate and RV11-RV15 previously hydrolized, unit assumed
Staph. aureus SS 08 = format: cell-based; conditions: Brain Heart Infusion, estolate and RV11-RV15 previously hydrolized, unit assumed
Staph. aureus SS 09 = format: cell-based; conditions: Brain Heart Infusion, estolate and RV11-RV15 previously hydrolized, unit assumed
Staph. aureus SS 10 = format: cell-based; conditions: Brain Heart Infusion, estolate and RV11-RV15 previously hydrolized, unit assumed
[2] = tested on: Strept. haemolyticus SS 17; format: cell-based; conditions: Brain Heart Infusion, estolate and RV11-RV15 previously hydrolized, unit assumed
[3] = tested on: Strept. haemolyticus SS 18; format: cell-based; conditions: Brain Heart Infusion, estolate and RV11-RV15 previously hydrolized, unit assumed
Strept. faecalis SS 19 = format: cell-based; conditions: Brain Heart Infusion, estolate and RV11-RV15 previously hydrolized, unit assumed
S. lutea ATCC 9341 = format: cell-based; conditions: Brain Heart Infusion, estolate and RV11-RV15 previously hydrolized, unit assumed
B. subtilis ATCC 6633 = format: cell-based; conditions: Brain Heart Infusion, estolate and RV11-RV15 previously hydrolized, unit assumed
B. subtilis SS 127 = format: cell-based; conditions: Brain Heart Infusion, estolate and RV11-RV15 previously hydrolized, unit assumed
B. anthranis SS 08 = format: cell-based; conditions: Brain Heart Infusion, estolate and RV11-RV15 previously hydrolized, unit assumed
Br. melitensis SS 19 = format: cell-based; conditions: unit assumed
Br. abortus SS 7 = format: cell-based; conditions: Brain Heart Infusion, estolate and RV11-RV15 previously hydrolized, unit assumed
Citrobacter SS 05 = format: cell-based; conditions: Brain Heart Infusion, estolate and RV11-RV15 previously hydrolized, unit assumed
Citrobacter SS 09 = format: cell-based; conditions: Brain Heart Infusion, estolate and RV11-RV15 previously hydrolized, unit assumed
S. infantis SS 08 = format: cell-based; conditions: Brain Heart Infusion, estolate and RV11-RV15 previously hydrolized, unit assumed
E. cloacae SS 07 = format: cell-based; conditions: Brain Heart Infusion, estolate and RV11-RV15 previously hydrolized, unit assumed
E. aerogenes SS 011 = format: cell-based; conditions: Brain Heart Infusion, estolate and RV11-RV15 previously hydrolized, unit assumed
Ps. aeruginosa SS 10 = format: cell-based; conditions: Brain Heart Infusion, estolate and RV11-RV15 previously hydrolized, unit assumed
E. coli SS 04 = format: cell-based; conditions: Brain Heart Infusion, estolate and RV11-RV15 previously hydrolized, unit assumed
E. coli SS 05 = format: cell-based; conditions: Brain Heart Infusion, estolate and RV11-RV15 previously hydrolized, unit assumed
E. coli SS 07 = format: cell-based; conditions: Brain Heart Infusion, estolate and RV11-RV15 previously hydrolized, unit assumed
Pr. mirabilis SS 09 = format: cell-based; conditions: Brain Heart Infusion, estolate and RV11-RV15 previously hydrolized, unit assumed
Pr. vulgaris SS 10 = format: cell-based; conditions: Brain Heart Infusion, estolate and RV11-RV15 previously hydrolized, unit assumed
Kl. aerogenes SS 71 = format: cell-based; conditions: Brain Heart Infusion, estolate and RV11-RV15 previously hydrolized, unit assumed
H. tubercolosis SS 03 = format: cell-based; conditions: Brain Heart Infusion, estolate and RV11-RV15 previously hydrolized, unit assumed
Text: (§1) In the following table I the MIC/ml values are indicated corresponding to the lowest concentration capable of inducing a complete inhibition of the bacterial development.

Kl. pneumoniae SS 04 = format: cell-based; conditions: Brain Heart Infusion, estolate and RV11-RV15 previously hydrolized, unit assumed
Text: as §1

Sr. marcescens SS 03 = format: cell-based; conditions: Brain Heart Infusion, estolate and RV11-RV15 previously hydrolized, unit assumed
C. diphtheriae SS 19 = format: cell-based; conditions: Brain Heart Infusion, estolate and RV11-RV15 previously hydrolized, unit assumed
N. gonorreae SS 27 = format: cell-based; conditions: Brain Heart Infusion, estolate and RV11-RV15 previously hydrolized, unit assumed
H. influentiae SS 02 = format: cell-based; conditions: Brain Heart Infusion, estolate and RV11-RV15 previously hydrolized, unit assumed
H. pertussis SS 03 = format: cell-based; conditions: Brain Heart Infusion, estolate and RV11-RV15 previously hydrolized, unit assumed
C. albicans SS 04 = format: cell-based; conditions: Brain Heart Infusion, estolate and RV11-RV15 previously hydrolized, unit assumed
Cl. tetani SS 17 = format: cell-based; conditions: Brain Heart Infusion, estolate and RV11-RV15 previously hydrolized, unit assumed
B. anthranis SS 09 = format: cell-based; conditions: B. anthranis SS 09 (14 bis); Brain Heart Infusion; estolate and RV11-RV15 previously hydrolized; unit assumed
Acute toxicity = format: in vivo; conditions: mouse, in vivo, po, 14400 min
Procedure: The acute toxicity was assessed in Swiss white mice by oral and intravenous route. The LD50 values have been calculated by the methods of Probits, starting from the mortality recorded 10 days after the treatment.

Staph. aureus SS 07 [4] = assay: Experimental infection induced by Staph. aureus SS 07; format: in vivo, Swiss white mice; conditions: os; Staph. aureus SS 07; mg/kg of erythromycin; survival after 7 days; 10080 min
Procedure, shortened: (§2)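 Swiss mice of 20 g infected parenterally with lethal amounts of Staph. aureus SS 07 or D. pneumoniae SS 23. Antibiotics were given at infection and again 6 and 24 h later. ED50 was derived from survival at 7 days.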

D. pneumoniae SS 23 = assay: Experimental infection induced by D. pneumoniae SS 23; format: in vivo, Swiss white mice; conditions: os; D. pneumoniae SS 23; mg/kg of erythromycin; survival after 7 days; 10080 min
Procedure, shortened: as §2

[5] = Mucolytic activity: obstruction of the bronchial tract after SO2 inhalation; format: in vivo, Sprague Dawley male rats; conditions: oral, 500 mg/kg; SO2, 15 days
[6] = Histological examination of bronchi after SO2 inhalation; format: in vivo, Sprague Dawley male rats; conditions: oral, 500 mg/kg

Work on `CCC(=O)O[C@H]1[C@H](O[C@@H]2[C@@H](C)[C@H](O[C@H]3C[C@@](C)(OC)[C@@H](O)[C@H](C)O3)[C@@H](C)C(=O)O[C@H](CC)[C@@](C)(O)[C@H](O)[C@@H](C)C(=O)[C@H](C)C[C@@]2(C)O)O[C@H](C)C[C@@H]1N(C)C` [RV15, erythromycin monopropionate N-acetylcysteinate] yielded an MIC (Staph. albus SS 03) of 0.25 µg/mL (≈ 0.316 µM), an MIC (Staph. albus SS 04) of 0.05 µg/mL (≈ 0.0633 µM) and an MIC (Staph. aureus SS 07 [1]) of 0.025 µg/mL (≈ 0.0316 µM). For the same compound, the MIC (Staph. aureus SS 08) was 0.025 µg/mL (≈ 0.0316 µM), the MIC (Staph. aureus SS 09) was 0.05 µg/mL (≈ 0.0633 µM) and the MIC (Staph. aureus SS 10) was 0.05 µg/mL (≈ 0.0633 µM). The MIC [2] was 1.5 µg/mL (≈ 1.9 µM), the MIC [3] was 3 µg/mL (≈ 3.8 µM) and the MIC (Strept. faecalis SS 19) was 0.05 µg/mL (≈ 0.0633 µM). It also gave an MIC (S. lutea ATCC 9341) of 0.01 µg/mL (≈ 0.0127 µM), an MIC (B. subtilis ATCC 6633) of 0.01 µg/mL (≈ 0.0127 µM) and an MIC (B. subtilis SS 127) of 0.025 µg/mL (≈ 0.0316 µM). It also gave an MIC (B. anthranis SS 08) of 0.4 µg/mL (≈ 0.506 µM), an MIC (Br. melitensis SS 19) of 3 µg/mL (≈ 3.8 µM) and an MIC (Br. abortus SS 7) of 6 µg/mL (≈ 7.59 µM). For the same compound, the MIC (Citrobacter SS 05) was > 200 µg/mL, the MIC (Citrobacter SS 09) was > 200 µg/mL and the MIC (S. infantis SS 08) was 100 µg/mL (≈ 127 µM). For the same compound, the MIC (E. cloacae SS 07) was > 200 µg/mL, the MIC (E. aerogenes SS 011) was 50 µg/mL (≈ 63.3 µM) and the MIC (Ps. aeruginosa SS 10) was 100 µg/mL (≈ 127 µM). The MIC (E. coli SS 04) was 50 µg/mL (≈ 63.3 µM), the MIC (E. coli SS 05) was 100 µg/mL (≈ 127 µM) and the MIC (E. coli SS 07) was 50 µg/mL (≈ 63.3 µM). The MIC (Pr. mirabilis SS 09) was > 200 µg/mL, the MIC (Pr. vulgaris SS 10) was > 200 µg/mL and the MIC (Kl. aerogenes SS 71) was 100 µg/mL (≈ 127 µM). It also gave an MIC (H. tubercolosis SS 03) of 50 µg/mL (≈ 63.3 µM), an MIC (Kl. pneumoniae SS 04) of 100 µg/mL (≈ 127 µM) and an MIC (Sr. marcescens SS 03) of 200 µg/mL (≈ 253 µM). It also gave an MIC (C. diphtheriae SS 19) of 0.02 µg/mL (≈ 0.0253 µM), an MIC (N. gonorreae SS 27) of 0.8 µg/mL (≈ 1.01 µM) and an MIC (H. influentiae SS 02) of 1.5 µg/mL (≈ 1.9 µM). For the same compound, the MIC (H. pertussis SS 03) was 0.2 µg/mL (≈ 0.253 µM), the MIC (C. albicans SS 04) was 200 µg/mL (≈ 253 µM) and the MIC (Cl. tetani SS 17) was 0.2 µg/mL (≈ 0.253 µM). For the same compound, the MIC (B. anthranis SS 09) was 0.4 µg/mL (≈ 0.506 µM), the “LD50 (reliability limits)” value (Acute toxicity) was 3000 mg·kg and the “ED50 (reliability limits)” value (Staph. aureus SS 07 [4]) was 2.10 (2.49-1.92) mg/kg. For the same compound, the “ED50 (reliability limits)” value (D. pneumoniae SS 23) was 110.90 (135.28-90.92) mg/kg, the “Partial obstruction (% incidence)” value [5] was 6.66% and the “Total obstruction, compact plug (% incidence)” value [5] was 20%. For the same compound, the “Total obstruction, nodular mass (% incidence)” value [5] was 13.33%, the “Total obstruction, pimply mass (% incidence)” value [5] was 6.66% and the “histological appearance of non obstructed bronchi” value ([6]; free non obstructed) was “presence of bronchi having almost normal appearance”. The “histological appearance of obstructed bronchial tract” value ([6]; obstructed) was “fully like that of the control animals”.
